“And” between values parts separate entries of the source, which are not always exact repeats. Equal values may be shown once. “Also recorded” adds a separate entry of the source. Read-outs that look alike come from different tables or passages of the source.
Experiments:
[1] = system: patients with advanced solid tumors (SCLC, CRC, mCRPC, NUT carcinoma); test: phase Ib expansion: DLTs, adverse events, exposure; conditions: for DLT / DLT grade / DLT outcome / DLT duration: individual patient events; for patients with DLTs: phase Ib schedule B
Text: The primary endpoint for the phase Ib expansion was the number of patients who experienced DLTs during the study treatment period.
For fatigue at baseline, there had to be an increase of two or more grades.

[2] = system: patients with solid tumors; set-up: method as in PMID 37556913; conditions: cited from earlier work; for maximum tolerated dose (MTD): solid tumors
[3] = phase Ib CRC, schedule B 2.5 mg
[4] = phase Ib NUT carcinoma, schedule B 2.5 mg
[5] = phase Ib NUT carcinoma, schedule C 6.0/3.0 mg
[6] = phase Ib SCLC, schedule B 2.5 mg
[7] = phase Ib mCRPC, schedule B 2.5 mg
[8] = phase Ib, NUT carcinoma total n = 42

## CNc1nc(-c2nc3ccc(N4CCN(C)CC4)cc3n2Cc2ccccc2)cn2c(C)nnc12 [BI 894999]
[1]; phase Ia DLBCL extension and phase Ib
  most frequent DLT: grade 4 thrombocytopenia
[1]; phase Ib
  discontinuation because of DLT: 3.8%
  discontinuation because of other AEs: 10.1%
  discontinuation because of progressive disease: 78.5%
  dose continuations due to AEs: 13.9%
  dose reductions due to AEs: 16.5%
  median time to first dose reduction: 35.5 days
  patients who died because of AEs: 8.9%
  patients who required a dose reduction: 20.3%
  patients with AEs of any grade: 100%
  patients with treatment-related AEs: 83.5%
  thrombocytopenia leading to dose discontinuation: 2.5%
[1]; [3]
  DLT: Dermatitis acneiform; also recorded: Thrombocytopenia
  DLT grade: 3 and 4
  DLT outcome: Not recovered
[1]; [4]
  DLT: Decreased platelet count
  DLT duration: 6 days
  DLT grade: 4
  DLT outcome: Not recovered
[1]; [5]
  DLT: Pleural effusion; also recorded: Fatigue; also recorded: Diarrhea; also recorded: Decreased platelet count
  DLT duration: 3 days and 16 days and 36 days
  DLT grade: 3 and 4
  DLT outcome: Recovered; also recorded: Not recovered
[1]; [6]
  DLT: Laryngeal inflammation; also recorded: Thrombocytopenia; also recorded: Decreased appetite; also recorded: Fatigue; also recorded: Troponin T increased
  DLT duration: 4 days and 9 days and 11 days and 6 days
  DLT grade: 3 and 4
  DLT outcome: Not recovered; also recorded: Recovered
[1]; [7]
  DLT: Thrombocytopenia; also recorded: Decreased platelet count; also recorded: Troponin T increased; also recorded: Stomatitis; also recorded: Nausea; also recorded: Decreased appetite; also recorded: Hypophosphatemia
  DLT duration: 40 days and 4 days and 3 days and 8 days and 12 days and 22 days
  DLT grade: 4 and 3
  DLT outcome: Not recovered; also recorded: Recovered
[1]; CRC
  patients with DLTs: 2 n
[1]; NUT carcinoma
  patients with DLTs: 2 n
[1]; SCLC
  patients with DLTs: 3 n
[1]; mCRPC
  patients with DLTs: 7 n
[1]; phase Ib, CRC n = 14
  ALT increase, treatment-related AE, any grade: 0 n (%)
  ALT increase, treatment-related AE, grade ≥3: 0 n (%)
  Anemia, treatment-related AE, any grade: 3 (21.4) n (%)
  Anemia, treatment-related AE, grade ≥3: 2 (14.3) n (%)
  Decreased appetite, treatment-related AE, any grade: 5 (35.7) n (%)
  Decreased appetite, treatment-related AE, grade ≥3: 0 n (%)
  Decreased platelet count, treatment-related AE, any grade: 1 (7.1) n (%)
  Decreased platelet count, treatment-related AE, grade ≥3: 1 (7.1) n (%)
  Diarrhea, treatment-related AE, any grade: 6 (42.9) n (%)
  Diarrhea, treatment-related AE, grade ≥3: 2 (14.3) n (%)
  Dysgeusia, treatment-related AE, any grade: 3 (21.4) n (%)
  Dysgeusia, treatment-related AE, grade ≥3: 0 n (%)
  Epistaxis, treatment-related AE, any grade: 1 (7.1) n (%)
  Epistaxis, treatment-related AE, grade ≥3: 0 n (%)
  Fatigue, treatment-related AE, any grade: 4 (28.6) n (%)
  Fatigue, treatment-related AE, grade ≥3: 0 n (%)
  Nausea, treatment-related AE, any grade: 3 (21.4) n (%)
  Nausea, treatment-related AE, grade ≥3: 0 n (%)
  Number of patients with treatment-related AEs: 12 (85.7) n (%)
  Thrombocytopenia, treatment-related AE, any grade: 5 (35.7) n (%)
  Thrombocytopenia, treatment-related AE, grade ≥3: 3 (21.4) n (%)
  Vomiting, treatment-related AE, any grade: 3 (21.4) n (%)
  Vomiting, treatment-related AE, grade ≥3: 2 (14.3) n (%)
  Weight decrease, treatment-related AE, any grade: 1 (7.1) n (%)
  Weight decrease, treatment-related AE, grade ≥3: 0 n (%)
[1]; [8]
  ALT increase, treatment-related AE, any grade: 5 (11.9) n (%)
  ALT increase, treatment-related AE, grade ≥3: 0 n (%)
  Anemia, treatment-related AE, any grade: 11 (26.2) n (%)
  Anemia, treatment-related AE, grade ≥3: 6 (14.3) n (%)
  Decreased appetite, treatment-related AE, any grade: 1 (2.4) n (%)
  Decreased appetite, treatment-related AE, grade ≥3: 0 n (%)
  Decreased platelet count, treatment-related AE, any grade: 15 (35.7) n (%)
  Decreased platelet count, treatment-related AE, grade ≥3: 7 (16.7) n (%)
  Diarrhea, treatment-related AE, any grade: 8 (19.0) n (%)
  Diarrhea, treatment-related AE, grade ≥3: 1 (2.4) n (%)
  Dysgeusia, treatment-related AE, any grade: 5 (11.9) n (%)
  Dysgeusia, treatment-related AE, grade ≥3: 0 n (%)
  Epistaxis, treatment-related AE, any grade: 1 (2.4) n (%)
  Epistaxis, treatment-related AE, grade ≥3: 0 n (%)
  Fatigue, treatment-related AE, any grade: 10 (23.8) n (%)
  Fatigue, treatment-related AE, grade ≥3: 4 (9.5) n (%)
  Nausea, treatment-related AE, any grade: 2 (4.8) n (%)
  Nausea, treatment-related AE, grade ≥3: 0 n (%)
  Number of patients with treatment-related AEs: 32 (76.2) n (%)
  Thrombocytopenia, treatment-related AE, any grade: 10 (23.8) n (%)
  Thrombocytopenia, treatment-related AE, grade ≥3: 6 (14.3) n (%)
  Vomiting, treatment-related AE, any grade: 0 n (%)
  Vomiting, treatment-related AE, grade ≥3: 0 n (%)
  Weight decrease, treatment-related AE, any grade: 0 n (%)
  Weight decrease, treatment-related AE, grade ≥3: 0 n (%)
[1]; phase Ib, SCLC n = 12
  ALT increase, treatment-related AE, any grade: 1 (8.3) n (%)
  ALT increase, treatment-related AE, grade ≥3: 0 n (%)
  Anemia, treatment-related AE, any grade: 0 n (%)
  Anemia, treatment-related AE, grade ≥3: 0 n (%)
  Decreased appetite, treatment-related AE, any grade: 2 (16.7) n (%)
  Decreased appetite, treatment-related AE, grade ≥3: 1 (8.3) n (%)
  Decreased platelet count, treatment-related AE, any grade: 1 (8.3) n (%)
  Decreased platelet count, treatment-related AE, grade ≥3: 0 n (%)
  Diarrhea, treatment-related AE, any grade: 3 (25.0) n (%)
  Diarrhea, treatment-related AE, grade ≥3: 0 n (%)
  Dysgeusia, treatment-related AE, any grade: 3 (25.0) n (%)
  Dysgeusia, treatment-related AE, grade ≥3: 0 n (%)
  Epistaxis, treatment-related AE, any grade: 0 n (%)
  Epistaxis, treatment-related AE, grade ≥3: 0 n (%)
  Fatigue, treatment-related AE, any grade: 4 (33.3) n (%)
  Fatigue, treatment-related AE, grade ≥3: 1 (8.3) n (%)
  Nausea, treatment-related AE, any grade: 1 (8.3) n (%)
  Nausea, treatment-related AE, grade ≥3: 0 n (%)
  Number of patients with treatment-related AEs: 11 (91.7) n (%)
  Thrombocytopenia, treatment-related AE, any grade: 5 (41.7) n (%)
  Thrombocytopenia, treatment-related AE, grade ≥3: 3 (25.0) n (%)
  Vomiting, treatment-related AE, any grade: 2 (16.7) n (%)
  Vomiting, treatment-related AE, grade ≥3: 0 n (%)
  Weight decrease, treatment-related AE, any grade: 1 (8.3) n (%)
  Weight decrease, treatment-related AE, grade ≥3: 0 n (%)
[1]; phase Ib, all 79 patients
  anemia, grade ≥3 treatment-related AE: 15.2%
  anemia, treatment-related AE: 22.8%
  decreased appetite, treatment-related AE: 15.2%
  decreased platelet count, grade ≥3 treatment-related AE: 11.4%
  decreased platelet count, treatment-related AE: 25.3%
  diarrhea, treatment-related AE: 29.1%
  dysgeusia, treatment-related AE: 19.0%
  fatigue, grade ≥3 treatment-related AE: 6.3%
  fatigue, treatment-related AE: 27.8%
  nausea, treatment-related AE: 12.7%
  thrombocytopenia, grade ≥3 treatment-related AE: 20.3%
  thrombocytopenia, treatment-related AE: 31.6%
  vomiting, treatment-related AE: 12.7%
[1]; phase Ib, mCRPC n = 11
  ALT increase, treatment-related AE, any grade: 0 n (%)
  ALT increase, treatment-related AE, grade ≥3: 0 n (%)
  Anemia, treatment-related AE, any grade: 4 (36.4) n (%)
  Anemia, treatment-related AE, grade ≥3: 4 (36.4) n (%)
  Decreased appetite, treatment-related AE, any grade: 4 (36.4) n (%)
  Decreased appetite, treatment-related AE, grade ≥3: 1 (9.1) n (%)
  Decreased platelet count, treatment-related AE, any grade: 3 (27.3) n (%)
  Decreased platelet count, treatment-related AE, grade ≥3: 1 (9.1) n (%)
  Diarrhea, treatment-related AE, any grade: 6 (54.5) n (%)
  Diarrhea, treatment-related AE, grade ≥3: 0 n (%)
  Dysgeusia, treatment-related AE, any grade: 4 (36.4) n (%)
  Dysgeusia, treatment-related AE, grade ≥3: 0 n (%)
  Epistaxis, treatment-related AE, any grade: 2 (18.2) n (%)
  Epistaxis, treatment-related AE, grade ≥3: 0 n (%)
  Fatigue, treatment-related AE, any grade: 4 (36.4) n (%)
  Fatigue, treatment-related AE, grade ≥3: 0 n (%)
  Nausea, treatment-related AE, any grade: 4 (36.4) n (%)
  Nausea, treatment-related AE, grade ≥3: 1 (9.1) n (%)
  Number of patients with treatment-related AEs: 11 (100.0) n (%)
  Thrombocytopenia, treatment-related AE, any grade: 5 (45.5) n (%)
  Thrombocytopenia, treatment-related AE, grade ≥3: 4 (36.4) n (%)
  Vomiting, treatment-related AE, any grade: 5 (45.5) n (%)
  Vomiting, treatment-related AE, grade ≥3: 0 n (%)
  Weight decrease, treatment-related AE, any grade: 2 (18.2) n (%)
  Weight decrease, treatment-related AE, grade ≥3: 0 n (%)
[1]; phase Ib, on treatment
  DLT grade 3 decreased appetite: 2.5%
  DLT grade 3 fatigue: 3.8%
  DLT grade 3 increased troponin T: 2.5%
  DLT grade 4 decreased platelet count: 5.1%
  DLT grade 4 thrombocytopenia: 10.1%
[1]; phase Ib, schedule C 6.0/3.0 mg, on-treatment period
  total patients with DLTs: Phase Ib expansion: total patients with DLTs on BI 894999 (schedule C; 6.0/3.0 mg), n = 3
[1]; phase Ib, COVID-19, pneumonia, sepsis, delirium, seizure, dyspnea, pulmonary hemorrhage, acute kidney injury
  AEs leading to death, each: 1.3%
[1]; phase Ib, tumor hemorrhage, seizure, dyspnea, laryngeal inflammation, nausea, stomatitis, bladder dilation, urinary retention, increased ALT, increased AST, decreased platelet count, increased alkaline phosphatase
  other AEs leading to dose discontinuation, each: 1.3%
[1]; solid tumors phase Ib n = 79
  AEs leading to death: 7 (8.9) n (%)
  AEs leading to discontinuation of trial drug: 11 (13.9) n (%)
  AEs leading to dose reduction: 13 (16.5) n (%)
  Any AE: 79 (100) n (%)
  DLT in on-treatment period: 17 (21.5) n (%)
  Treatment-related AEs: 66 (83.5) n (%)
  Treatment-related serious AEs: 17 (21.5) n (%)
[2]; initial phase Ia, investigator's assessment
  disease control (CR, PR or SD): 26.0%
[2]; initial phase Ia
  best response PR: 3.9%
  patients with grade ≥3 DLTs: 22 of 77
[2]; schedule A (days 1-21 of 3-week cycle)
  maximum tolerated dose (MTD): 1.5 mg
[2]; schedule B (days 1-14 of 3-week cycle)
  maximum tolerated dose (MTD): 2.5 mg

Source: article PMC12005229, “Final results from the phase Ia/Ib study of the novel bromodomain and extra-terminal domain inhibitor, BI 894999, in patients with advanced solid tumors or diffuse large B-cell lymphoma” (ESMO Open, 2025)
